US8153160B2 (Bayer Pharma Aktiengesellschaft, priority 2005, dated 2012)
One block for each compound: values may come before it.

Experiments:
[1] = cited from earlier work
[2] = In vitro release, USP release method with apparatus 2 (paddle); assay type: physicochemical; settings: 100 rpm, 900 ml phosphate buffer pH 6.8 + 1.0% sodium lauryl sulfate, JP sinker
Experimental: The in vitro release investigations described below were carried out by the USP release method with apparatus 2 (paddle). […] Also added to the buffer solution to set up sink conditions is 1% sodium lauryl sulfate. The tablet formulations are preferably released from a sinker as specified in the Japanese Pharmacopoeia.

Structure (SMILES): CCOc1nc2cccc(C(=O)OC(C)OC(=O)OC3CCCCC3)c2n1Cc1ccc(-c2ccccc2-c2nnn[nH]2)cc1 (stereo not shown) [candesartan cilexetil]
- water solubility, classified in words [1]: virtually insoluble in water

Structure (SMILES): COC(=O)C1=C(C)NC(C)=C(C(=O)OCC(C)C)C1c1ccccc1[N+](=O)[O-] (stereo not shown) [nisoldipine]
- water solubility [1]: about 2 mg/l

- Release [%] at 2 h ([2]; from nifedipine/telmisartan osmotic two-chamber tablet, heading prints Exemplary Formulation 2.1, time 2 h): 5%
- Release [%] at 5 h ([2]; from nifedipine/telmisartan osmotic two-chamber tablet, heading prints Exemplary Formulation 2.1, time 5 h): 22%
- Release [%] at 10 h ([2]; from nifedipine/telmisartan osmotic two-chamber tablet, heading prints Exemplary Formulation 2.1, time 10 h): 51%
- Release [%] at 15 h ([2]; from nifedipine/telmisartan osmotic two-chamber tablet, heading prints Exemplary Formulation 2.1, time 15 h): 80%
- Release [%] at 24 h ([2]; from nifedipine/telmisartan osmotic two-chamber tablet, heading prints Exemplary Formulation 2.1, time 24 h): 90%
Structure (SMILES): CCCc1nc2c(C)cc(-c3nc4ccccc4n3C)cc2n1Cc1ccc(-c2ccccc2C(=O)O)cc1 [Telmisartan]

- Release [%] at 2 h ([2]; from tablet Exemplary formulation 2.1 (30 mg nifedipine, osmotic two-chamber system), time 2 h): 2%
- Release [%] at 4 h ([2]; from tablet Exemplary formulation 2.1 (30 mg nifedipine, osmotic two-chamber system), time 4 h): 19%
- Release [%] at 8 h ([2]; from tablet Exemplary formulation 2.1 (30 mg nifedipine, osmotic two-chamber system), time 8 h): 48%
- Release [%] at 12 h ([2]; from tablet Exemplary formulation 2.1 (30 mg nifedipine, osmotic two-chamber system), time 12 h): 77%
- Release [%] at 24 h ([2]; from tablet Exemplary formulation 2.1 (30 mg nifedipine, osmotic two-chamber system), time 24 h): 96%
Structure (SMILES): CCCCc1nc(Cl)c(CO)n1Cc1ccc(-c2ccccc2-c2nn[nH]n2)cc1 [Losartan-K, losartan potassium]
- water solubility, classified in words [1]: freely soluble
